Measurements from patent US10485235B2, “Aryloxypyrimidinyl ethers as herbicides” (FMC Corporation, priority 2015, dated 2019).

Tests used:
Type in all cases: in vivo
[1] = system: wheat (Triticum aestivum); assay: Test A postemergence, wheat; conditions: postemergence, 0 to 100 scale, 0 is no effect, 100 is complete control, approximately 10 days
In short: (§1)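 Plants grown in pots of loam blended with sand were treated either before emergence, via directed soil spray, or after emergence at the one- to two-leaf stage. Following about 10 days in the greenhouse, each treatment was visually compared with untreated controls and rated from 0 (no effect) to 100 (complete control).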

corn (Zea mays) = assay: Test A postemergence, corn; conditions: postemergence, 0 to 100 scale, 0 is no effect, 100 is complete control, approximately 10 days
In short: as §1

[2] = system: ducksalad (Heteranthera limosa); assay: Test B flooded paddy test, ducksalad; conditions: 250 g ai/ha, Flood; visual rating after 13 to 15 days; scale 0 to 100, 0 is no effect, 100 is complete control
Protocol: (§2) Plant species in the flooded paddy test selected from rice (Oryza sativa), sedge, umbrella (small-flower umbrella sedge, Cyperus difformis), ducksalad (Heteranthera limosa), and barnyardgrass (Echinochloa crus-galli) were grown to the 2-leaf stage for testing. At time of treatment, test pots were flooded to 3 cm above the soil surface, treated by application of test compounds directly to the paddy water, and then maintained at that water depth for the duration of the test. Treated plants and controls were maintained in a greenhouse for 13 to 15 days, after which time all species were compared to controls and visually evaluated. Plant response ratings, summarized in Table B, are based on a scale of 0 to 100 where 0 is no effect and 100 is complete control. A dash (—) response means no test result.

[3] = system: ragweed (common ragweed, Ambrosia elatior); assay: Test A postemergence, ragweed; conditions: postemergence, 0 to 100 scale, 0 is no effect, 100 is complete control, approximately 10 days
In short: as §1

[4] = system: barnyardgrass (Echinochloa crus-galli); assay: Test A postemergence, barnyardgrass; conditions: postemergence, 0 to 100 scale, 0 is no effect, 100 is complete control, approximately 10 days
In short: as §1

[5] = system: galium (catchweed bedstraw, Galium aparine); assay: Test A postemergence, galium; conditions: postemergence, 0 to 100 scale, 0 is no effect, 100 is complete control, approximately 10 days
In short: as §1

[6] = system: ryegrass, Italian (Italian ryegrass, Lolium multiflorum); assay: Test A postemergence, Italian ryegrass; conditions: postemergence, 0 to 100 scale, 0 is no effect, 100 is complete control, approximately 10 days
In short: as §1

[7] = system: sedge, umbrella (small-flower umbrella sedge, Cyperus difformis); assay: Test B flooded paddy test, umbrella sedge; conditions: 250 g ai/ha, Flood; visual rating after 13 to 15 days; scale 0 to 100, 0 is no effect, 100 is complete control
Protocol: as §2

[8] = system: pigweed (Amaranthus retroflexus); assay: Test A preemergence, pigweed; conditions: Preemergence, 0 to 100 scale (0 no effect, 100 complete control)
In short: as §1

[9] = system: barnyardgrass (Echinochloa crus-galli); assay: Test B flooded paddy test, barnyardgrass; conditions: 250 g ai/ha, Flood; visual rating after 13 to 15 days; scale 0 to 100, 0 is no effect, 100 is complete control
Protocol: as §2

rice (Oryza sativa) = assay: Test B flooded paddy test, rice; conditions: 250 g ai/ha, Flood; visual rating after 13 to 15 days; scale 0 to 100, 0 is no effect, 100 is complete control
Protocol: as §2

[10] = system: ragweed (common ragweed, Ambrosia elatior); assay: Test A preemergence, ragweed; conditions: Preemergence, 0 to 100 scale (0 no effect, 100 complete control)
In short: as §1

kochia (Kochia scoparia) [11] = assay: Test A postemergence, kochia; conditions: postemergence, 0 to 100 scale, 0 is no effect, 100 is complete control, approximately 10 days
In short: as §1

[12] = system: barnyardgrass (Echinochloa crus-galli); assay: Test A preemergence, barnyardgrass; conditions: Preemergence, 0 to 100 scale (0 no effect, 100 complete control)
In short: as §1

[13] = system: foxtail, giant (giant foxtail, Setaria faberii); assay: Test A preemergence, giant foxtail; conditions: Preemergence, 0 to 100 scale (0 no effect, 100 complete control)
In short: as §1

[14] = system: pigweed (Amaranthus retroflexus); assay: Test A postemergence, pigweed; conditions: postemergence, 0 to 100 scale, 0 is no effect, 100 is complete control, approximately 10 days
In short: as §1

[15] = system: ryegrass, Italian (Italian ryegrass, Lolium multiflorum); assay: Test A preemergence, Italian ryegrass; conditions: Preemergence, 0 to 100 scale (0 no effect, 100 complete control)
In short: as §1

[16] = system: foxtail, giant (giant foxtail, Setaria faberii); assay: Test A postemergence, giant foxtail; conditions: postemergence, 0 to 100 scale, 0 is no effect, 100 is complete control, approximately 10 days
In short: as §1

kochia (Kochia scoparia) [17] = assay: Test A preemergence, kochia; conditions: Preemergence, 0 to 100 scale (0 no effect, 100 complete control)
In short: as §1

[18] = system: blackgrass (Alopecurus myosuroides); assay: Test A postemergence, blackgrass; conditions: postemergence, 0 to 100 scale, 0 is no effect, 100 is complete control, approximately 10 days
In short: as §1

| SMILES | Plant response rating, Wheat ([1]; 125 g ai/ha) | Plant response rating, Wheat ([1]; 500 g ai/ha) | Plant response rating, Corn (corn (Zea mays); 125 g ai/ha) | Plant response rating, Corn (corn (Zea mays); 500 g ai/ha) | Plant response rating, Ducksalad [2] | Plant response rating, Ragweed ([3]; 125 g ai/ha) | Plant response rating, Ragweed ([3]; 500 g ai/ha) | Plant response rating, Barnyardgrass ([4]; 125 g ai/ha) | Plant response rating, Barnyardgrass ([4]; 500 g ai/ha) | Plant response rating, Galium ([5]; 125 g ai/ha) | Plant response rating, Galium ([5]; 500 g ai/ha) | Plant response rating, Ryegrass, Italian ([6]; 125 g ai/ha) | Plant response rating, Ryegrass, Italian ([6]; 500 g ai/ha) | Plant response rating, Sedge, Umbrella [7] | Plant response rating, Pigweed ([8]; 125 g ai/ha) | Plant response rating, Pigweed ([8]; 500 g ai/ha) | Plant response rating, Barnyardgrass [9] | Plant response rating, Rice (rice (Oryza sativa)) | Plant response rating, Ragweed ([10]; 125 g ai/ha) | Plant response rating, Ragweed ([10]; 500 g ai/ha) | also measured |
| --- | --- | --- | --- | --- | --- | --- | --- | --- | --- | --- | --- | --- | --- | --- | --- | --- | --- | --- | --- | --- | --- |
| CC(C)CCCOc1c(Br)cccc1Oc1ncc(Cl)cn1 [Compound 11] | 0 | 20 | 30 | 30 | 0 | 0 | 0 | 10 | 90 | 70 | 100 | 0 | 20 | 0 | 0 | 80 | 0 | 0 | 0 | 0 | Plant response rating, Kochia (kochia (Kochia scoparia) [11]; 125 g ai/ha): 20; Plant response rating, Kochia (kochia (Kochia scoparia) [11]; 500 g ai/ha): 90; Plant response rating, Barnyardgrass ([12]; 125 g ai/ha): 20; Plant response rating, Barnyardgrass ([12]; 500 g ai/ha): 90; Plant response rating, Foxtail, Giant ([13]; 125 g ai/ha): 90; Plant response rating, Foxtail, Giant ([13]; 500 g ai/ha): 100; Plant response rating, Pigweed ([14]; 125 g ai/ha): 60; Plant response rating, Pigweed ([14]; 500 g ai/ha): 100; Plant response rating, Ryegrass, Italian ([15]; 125 g ai/ha): 0; Plant response rating, Ryegrass, Italian ([15]; 500 g ai/ha): 30; Plant response rating, Foxtail, Giant ([16]; 125 g ai/ha): 20; Plant response rating, Foxtail, Giant ([16]; 500 g ai/ha): 60; Plant response rating, Kochia (kochia (Kochia scoparia) [17]; 125 g ai/ha): 0; Plant response rating, Kochia (kochia (Kochia scoparia) [17]; 500 g ai/ha): 0; Plant response rating, Blackgrass ([18]; 125 g ai/ha): 0; Plant response rating, Blackgrass ([18]; 500 g ai/ha): 40 |
| CC(C)CCOc1c(Br)cccc1Oc1ncc(Cl)cn1 [Compound 12] | 0 | 20 | 30 | 30 | 0 | 10 | 20 | 10 | 100 | 70 | 100 | 0 | 30 | 0 | 40 | 100 | 0 | 0 | 0 | 0 | Plant response rating, Kochia (kochia (Kochia scoparia) [11]; 125 g ai/ha): 90; Plant response rating, Kochia (kochia (Kochia scoparia) [11]; 500 g ai/ha): 100; Plant response rating, Barnyardgrass ([12]; 125 g ai/ha): 70; Plant response rating, Barnyardgrass ([12]; 500 g ai/ha): 100; Plant response rating, Foxtail, Giant ([13]; 125 g ai/ha): 90; Plant response rating, Foxtail, Giant ([13]; 500 g ai/ha): 100; Plant response rating, Pigweed ([14]; 125 g ai/ha): 70; Plant response rating, Pigweed ([14]; 500 g ai/ha): 100; Plant response rating, Ryegrass, Italian ([15]; 125 g ai/ha): 0; Plant response rating, Ryegrass, Italian ([15]; 500 g ai/ha): 40; Plant response rating, Foxtail, Giant ([16]; 125 g ai/ha): 10; Plant response rating, Foxtail, Giant ([16]; 500 g ai/ha): 100; Plant response rating, Kochia (kochia (Kochia scoparia) [17]; 125 g ai/ha): 0; Plant response rating, Kochia (kochia (Kochia scoparia) [17]; 500 g ai/ha): 70; Plant response rating, Blackgrass ([18]; 125 g ai/ha): 20; Plant response rating, Blackgrass ([18]; 500 g ai/ha): 60 |
| N#Cc1cccc(Oc2ncc(Cl)cn2)c1OCC(F)(F)C(F)F [Compound 14] | 20 | 40 | 20 | 50 | 0 | 10 | 20 | 80 | 100 | 50 | 100 | 10 | 50 | 0 | 100 | 100 | 0 | 0 | 0 | 0 | Plant response rating, Kochia (kochia (Kochia scoparia) [11]; 125 g ai/ha): 100; Plant response rating, Kochia (kochia (Kochia scoparia) [11]; 500 g ai/ha): 100; Plant response rating, Barnyardgrass ([12]; 125 g ai/ha): 90; Plant response rating, Barnyardgrass ([12]; 500 g ai/ha): 100; Plant response rating, Foxtail, Giant ([13]; 125 g ai/ha): 100; Plant response rating, Foxtail, Giant ([13]; 500 g ai/ha): 100; Plant response rating, Pigweed ([14]; 125 g ai/ha): 100; Plant response rating, Pigweed ([14]; 500 g ai/ha): 100; Plant response rating, Ryegrass, Italian ([15]; 125 g ai/ha): 10; Plant response rating, Ryegrass, Italian ([15]; 500 g ai/ha): 70; Plant response rating, Foxtail, Giant ([16]; 125 g ai/ha): 80; Plant response rating, Foxtail, Giant ([16]; 500 g ai/ha): 100; Plant response rating, Kochia (kochia (Kochia scoparia) [17]; 125 g ai/ha): 90; Plant response rating, Kochia (kochia (Kochia scoparia) [17]; 500 g ai/ha): 100; Plant response rating, Blackgrass ([18]; 125 g ai/ha): 60; Plant response rating, Blackgrass ([18]; 500 g ai/ha): 90 |
| N#Cc1cccc(Oc2ncc(Cl)cn2)c1OCC(F)F [Compound 16] | 0 | 20 | 20 | 70 | 30 | 10 | 60 | 20 | 90 | 30 | 90 | 0 | 80 | 0 | 100 | 100 | 0 | 0 | 60 | 90 | Plant response rating, Kochia (kochia (Kochia scoparia) [11]; 125 g ai/ha): 100; Plant response rating, Kochia (kochia (Kochia scoparia) [11]; 500 g ai/ha): 100; Plant response rating, Barnyardgrass ([12]; 125 g ai/ha): 80; Plant response rating, Barnyardgrass ([12]; 500 g ai/ha): 100; Plant response rating, Foxtail, Giant ([13]; 125 g ai/ha): 100; Plant response rating, Foxtail, Giant ([13]; 500 g ai/ha): 100; Plant response rating, Pigweed ([14]; 125 g ai/ha): 90; Plant response rating, Pigweed ([14]; 500 g ai/ha): 100; Plant response rating, Ryegrass, Italian ([15]; 125 g ai/ha): 10; Plant response rating, Ryegrass, Italian ([15]; 500 g ai/ha): 40; Plant response rating, Foxtail, Giant ([16]; 125 g ai/ha): 30; Plant response rating, Foxtail, Giant ([16]; 500 g ai/ha): 100; Plant response rating, Kochia (kochia (Kochia scoparia) [17]; 125 g ai/ha): 100; Plant response rating, Kochia (kochia (Kochia scoparia) [17]; 500 g ai/ha): 100; Plant response rating, Blackgrass ([18]; 125 g ai/ha): 10; Plant response rating, Blackgrass ([18]; 500 g ai/ha): 90 |
